Data: patent US20260234124A1, “Substituted Pyrazolyl-Pyridinyl Compounds as Ligand Directed Degraders of IRAK3” (Celgene Corporation, priority 2022, published 2026)

Target: T1, IRAK3 (Homo sapiens, UniProt Q9Y616)
T1 sequence (Q9Y616 1-596): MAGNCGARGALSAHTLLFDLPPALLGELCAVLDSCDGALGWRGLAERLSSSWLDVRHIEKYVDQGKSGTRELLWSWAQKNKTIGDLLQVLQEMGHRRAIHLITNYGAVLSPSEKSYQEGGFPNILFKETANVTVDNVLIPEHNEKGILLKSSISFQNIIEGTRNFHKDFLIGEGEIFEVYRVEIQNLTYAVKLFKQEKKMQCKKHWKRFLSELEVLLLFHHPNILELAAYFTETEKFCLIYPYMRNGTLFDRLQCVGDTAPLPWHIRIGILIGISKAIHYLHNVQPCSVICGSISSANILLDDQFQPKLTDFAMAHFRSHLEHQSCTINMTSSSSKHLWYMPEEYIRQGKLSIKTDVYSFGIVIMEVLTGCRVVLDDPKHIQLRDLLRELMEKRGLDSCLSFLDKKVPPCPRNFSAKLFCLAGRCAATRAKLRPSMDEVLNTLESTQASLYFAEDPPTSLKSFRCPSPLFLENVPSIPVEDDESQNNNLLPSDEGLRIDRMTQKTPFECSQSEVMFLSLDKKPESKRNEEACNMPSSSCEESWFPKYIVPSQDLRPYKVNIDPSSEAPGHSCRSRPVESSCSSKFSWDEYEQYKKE
Assay: IRAK3 biochemical binding assay (LanthaScreen Eu Kinase Binding, TR-FRET)
Conditions: 10 nM tracer, 10 nM IRAK3, 1 hour at room temperature
Description: Example B3. IRAK3 Biochemical Binding Assay
The LanthaScreen® Eu Kinase Binding assay was performed as described by the vendor (ThermoFisher Scientific Waltham, MA). Briefly, 100× solutions of compound were prepared in DMSO via serial dilution of the 10 mM stock solution in a 384-well reagent plate using 3-fold intervals to achieve final concentrations. 1 μL of the compound dilution series were added to the corresponding wells of a 384-well reagent plate containing 32.3 μL of 1× buffer (50 mM HEPES pH 7.4, […], 1 mM EGTA, 0.01% Brij-35). 5 μL of the buffer diluted compounds were transferred to the corresponding wells of a 384-well assay plate. 5 μL of 3× tracer was transferred to each well of the assay plate for a final tracer concentration of 10 nM. Finally, 5 μL of the 3× Eu-Anti-GST and IRAK3 mix was transferred to each well for a final concentration of 2 nM and 10 nM, respectively. Reactions were allowed to incubate for 1 hour at room temperature. TR-FRET signal of the interaction ([…]/λem 665/λem 615) was read at room temperature with a delay time of 100 μs and an integration time of 200 μs using an Envision plate reader. Background corrected emission signal ratios at each compound concentration were used to calculate percentage of inhibition (% o Inhibition). Plots of % Inhibition versus inhibitor concentrations were fit according to a dose-response equation (Eq. 1) to generate IC50 and Hill slope values using Dotmatics software (Dotmatics, Bishops Storford, Hertfordshire, England).
Using these assays, IC50, Dmax, EC50, and DC50 values of the following compounds were determined. Dmax is defined as the maximum percent degradation achieved and DC50 is the concentration at which 50% degradation is achieved.

Row | IC50 [nM] | Structure (SMILES)
1 | 27 | C[C@@H](Oc1cc(-c2cnn(C3CCN(CCOCCOCCNC(=O)COc4cccc5c4C(=O)N(C4CCC(=O)NC4=O)C5=O)CC3)c2)cnc1N)c1c(Cl)ccc(F)c1Cl (stereo partly drawn) [Compound 10, N-(2-(2-(2-(4-(4-(6-amino-5-((R)-1-(2,6-dichloro-3-fluorophenyl)ethoxy)pyridin-3-yl)-1H-pyrazol-1-yl)piperidin-1-yl)ethoxy)ethoxy)ethyl)-2-((2-(2,6-dioxopiperidin-3-yl)-1,3-dioxoisoindolin-4-yl)oxy)acetamide]
2 | 70 | C[C@@H](Oc1cc(-c2cnn(C3CCN(CCOCCNC(=O)COc4ccc5c(c4)C(=O)N(C4CCC(=O)NC4=O)C5=O)CC3)c2)cnc1N)c1c(Cl)ccc(F)c1Cl (stereo partly drawn) [Compound 14, N-(2-(2-(4-(4-(6-amino-5-((R)-1-(2,6-dichloro-3-fluorophenyl)ethoxy)pyridin-3-yl)-1H-pyrazol-1-yl)piperidin-1-yl)ethoxy)ethyl)-2-((2-(2,6-dioxopiperidin-3-yl)-1,3-dioxoisoindolin-5-yl)oxy)acetamide]
3 | 12 | C[C@@H](Oc1cc(-c2cnn(C3CCN(C4CCC5(CC4)CCN(C(=O)c4ccc6c(c4)C(=O)N(C4CCC(=O)NC4=O)C6=O)CC5)CC3)c2)cnc1N)c1c(Cl)ccc(F)c1Cl (stereo partly drawn) [Compound 18, 5-(9-(4-(4-(6-amino-5-((R)-1-(2,6-dichloro-3-fluorophenyl)ethoxy)pyridin-3-yl)-1H-pyrazol-1-yl)piperidin-1-yl)-3-azaspiro[5.5]undecane-3-carbonyl)-2-(2,6-dioxopiperidin-3-yl)isoindoline-1,3-dione]
4 | 4 | C[C@@H](Oc1cc(-c2cnn(C3CCN(C4CCC5(CC4)CCN(C(=O)c4ccc6c(c4)C(=O)N(C4CCC(=O)NC4=O)C6)CC5)CC3)c2)cnc1N)c1c(Cl)ccc(F)c1Cl (stereo partly drawn) [Compound 19, 3-(6-(9-(4-(4-(6-amino-5-((R)-1-(2,6-dichloro-3-fluorophenyl)ethoxy)pyridin-3-yl)-1H-pyrazol-1-yl)piperidin-1-yl)-3-azaspiro[5.5]undecane-3-carbonyl)-1-oxoisoindolin-2-yl)piperidine-2,6-dione]
5 | 25 | C[C@@H](Oc1cc(-c2cnn(C3CCN(CCNC(=O)COc4cccc5c4C(=O)N(C4CCC(=O)NC4=O)C5=O)CC3)c2)cnc1N)c1c(Cl)ccc(F)c1Cl (stereo partly drawn) [Compound 8, N-(2-(4-(4-(6-amino-5-((R)-1-(2,6-dichloro-3-fluorophenyl)ethoxy)pyridin-3-yl)-1H-pyrazol-1-yl)piperidin-1-yl)ethyl)-2-((2-(2,6-dioxopiperidin-3-yl)-1,3-dioxoisoindolin-4-yl)oxy)acetamide]
6 | 56 | C[C@@H](Oc1cc(-c2cnn(C3CCN(CCOCCOCCOCCOCCNC(=O)COc4cccc5c4C(=O)N(C4CCC(=O)NC4=O)C5=O)CC3)c2)cnc1N)c1c(Cl)ccc(F)c1Cl (stereo partly drawn) [Compound 12, N-(14-(4-(4-(6-amino-5-((R)-1-(2,6-dichloro-3-fluorophenyl)ethoxy)pyridin-3-yl)-1H-pyrazol-1-yl)piperidin-1-yl)-3,6,9,12-tetraoxatetradecyl)-2-((2-(2,6-dioxopiperidin-3-yl)-1,3-dioxoisoindolin-4-yl)oxy)acetamide]
7 | 331 | Cc1ncsc1-c1ccc(CNC(=O)[C@@H]2C[C@@H](O)CN2C(=O)[C@@H](NC(=O)COCCOCCOCCOCCOCCOCCOCCN2CCC(n3cc(-c4cnc(N)c(O[C@H](C)c5c(Cl)ccc(F)c5Cl)c4)cn3)CC2)C(C)(C)C)cc1 [Compound 7, (2S,4R)-1-((S)-26-(4-(4-(6-amino-5-((R)-1-(2,6-dichloro-3-fluorophenyl)ethoxy)pyridin-3-yl)-1H-pyrazol-1-yl)piperidin-1-yl)-2-(tert-butyl)-4-oxo-6,9,12,15,18,21,24-heptaoxa-3-azahexacosanoyl)-4-hydroxy-N-(4-(4-methylthiazol-5-yl)benzyl)pyrrolidine-2-carboxamide]
8 | 100 | C[C@@H](Oc1cc(-c2cnn(C3CCN(CCOCCOCCOCCOCCNC(=O)COc4ccc5c(c4)C(=O)N(C4CCC(=O)NC4=O)C5=O)CC3)c2)cnc1N)c1c(Cl)ccc(F)c1Cl (stereo partly drawn) [Compound 17, N-(14-(4-(4-(6-amino-5-((R)-1-(2,6-dichloro-3-fluorophenyl)ethoxy)pyridin-3-yl)-1H-pyrazol-1-yl)piperidin-1-yl)-3,6,9,12-tetraoxatetradecyl)-2-((2-(2,6-dioxopiperidin-3-yl)-1,3-dioxoisoindolin-5-yl)oxy)acetamide]
9 | 108 | Cc1ncsc1-c1ccc(CNC(=O)[C@@H]2C[C@@H](O)CN2C(=O)[C@@H](NC(=O)COCCOCCOCCOCCOCCOCCN2CCC(n3cc(-c4cnc(N)c(O[C@H](C)c5c(Cl)ccc(F)c5Cl)c4)cn3)CC2)C(C)(C)C)cc1 [Compound 6, (2S,4R)-1-((S)-23-(4-(4-(6-amino-5-((R)-1-(2,6-dichloro-3-fluorophenyl)ethoxy)pyridin-3-yl)-1H-pyrazol-1-yl)piperidin-1-yl)-2-(tert-butyl)-4-oxo-6,9,12,15,18,21-hexaoxa-3-azatricosanoyl)-4-hydroxy-N-(4-(4-methylthiazol-5-yl)benzyl)pyrrolidine-2-carboxamide]
10 | 64 | C[C@@H](Oc1cc(-c2cnn(C3CCN(CCOCCOCCNC(=O)COc4ccc5c(c4)C(=O)N(C4CCC(=O)NC4=O)C5=O)CC3)c2)cnc1N)c1c(Cl)ccc(F)c1Cl (stereo partly drawn) [Compound 15, N-(2-(2-(2-(4-(4-(6-amino-5-((R)-1-(2,6-dichloro-3-fluorophenyl)ethoxy)pyridin-3-yl)-1H-pyrazol-1-yl)piperidin-1-yl)ethoxy)ethoxy)ethyl)-2-((2-(2,6-dioxopiperidin-3-yl)-1,3-dioxoisoindolin-5-yl)oxy)acetamide]
11 | 5 | C[C@@H](Oc1cc(-c2cnn(C3CCN(C4CCC5(CC4)CCN(C(=O)c4cccc(NC6CCC(=O)NC6=O)c4)CC5)CC3)c2)cnc1N)c1c(Cl)ccc(F)c1Cl (stereo partly drawn) [Compound 22, 3-((3-(9-(4-(4-(6-Amino-5-((R)-1-(2,6-dichloro-3-fluorophenyl)ethoxy)pyridin-3-yl)-1H-pyrazol-1-yl)piperidin-1-yl)-3-azaspiro[5.5]undecane-3-carbonyl)phenyl)amino)piperidine-2,6-dione]
12 | 47 | C[C@@H](Oc1cc(-c2cnn(C3CCN(CCOCCOCCOCCNC(=O)COc4ccc5c(c4)C(=O)N(C4CCC(=O)NC4=O)C5=O)CC3)c2)cnc1N)c1c(Cl)ccc(F)c1Cl (stereo partly drawn) [Compound 16, N-(2-(2-(2-(2-(4-(4-(6-amino-5-((R)-1-(2,6-dichloro-3-fluorophenyl)ethoxy)pyridin-3-yl)-1H-pyrazol-1-yl)piperidin-1-yl)ethoxy)ethoxy)ethoxy)ethyl)-2-((2-(2,6-dioxopiperidin-3-yl)-1,3-dioxoisoindolin-5-yl)oxy)acetamide]
13 | 95 | C[C@@H](Oc1cc(-c2cnn(C3CCN(CCOCCOCCOCCNC(=O)COc4cccc5c4C(=O)N(C4CCC(=O)NC4=O)C5=O)CC3)c2)cnc1N)c1c(Cl)ccc(F)c1Cl (stereo partly drawn) [Compound 11, N-(2-(2-(2-(2-(4-(4-(6-amino-5-((R)-1-(2,6-dichloro-3-fluorophenyl)ethoxy)pyridin-3-yl)-1H-pyrazol-1-yl)piperidin-1-yl)ethoxy)ethoxy)ethoxy)ethyl)-2-((2-(2,6-dioxopiperidin-3-yl)-1,3-dioxoisoindolin-4-yl)oxy)acetamide]
14 | 2 | C[C@@H](Oc1cc(-c2cnn(C3CCN(C4CCC5(CC4)CCN(C(=O)c4cccc6c4CN(C4CCC(=O)NC4=O)C6=O)CC5)CC3)c2)cnc1N)c1c(Cl)ccc(F)c1Cl (stereo partly drawn) [Compound 21, 3-(4-(9-(4-(4-(6-amino-5-((R)-1-(2,6-dichloro-3-fluorophenyl)ethoxy)pyridin-3-yl)-1H-pyrazol-1-yl)piperidin-1-yl)-3-azaspiro[5.5]undecane-3-carbonyl)-1-oxoisoindolin-2-yl)piperidine-2,6-dione]
